Measurements published in patent EP0394553A2, “Use of fluorine containing pyridone carboxylic acid derivatives for preparing a medicament for the treatment of HIV infections” (DAIICHI PHARMACEUTICAL CO., LTD., priority 1989, dated 1990).
Where two headings read alike, the source gives them in different places.

Experiments:
[1] = test system: HIV (LAV 1); test: microbe, parasite or virus in culture; details: for Viable cell count / Viral antigen-positive cell percentage: 10 mcg/ml; for viability at 1 µg/mL / viability at 2.5 µg/mL / viability at 5 µg/mL / viability at 10 µg/mL: Human immunodeficiency virus 1, CCRF-CEM
Protocol: Human T cell-derived, T4 antigen-positive CEM cells (provided by the Institut Pasteur, France) were used as host cells of HIV. Cell culture was carried out in a carbon dioxide-containing atmosphere in an incubator maintained at 37°C according to a conventional method [cf. […] The culture supernatant (5×10⁶ TCID₅₀/ml) obtained by subjecting CEM cells to HIV (LAV 1) infection and stored at -70°C was used as the HIV source.
The medium for cell culture (10 ml) placed in a plastic culture flask (25 cm²) was inoculated with CEM cells at a cell density of 2.5×10⁵ cells/ml. After 3 days of incubation, the culture was transferred to a 15-ml centrifuge tube and subjected to centrifugation at 1,000 revolutions per minute for 5 minutes for sedimentation of cells and removal of the culture medium.
The stock viral suspension was added to the host cells thus prepared to an MOI of 0.05 and the mixture was maintained at 37°C for 90 minutes with stirring at 30-minute intervals for viral adsorption. The medium was added to HIV-infected cells to a cell density of 5.0×10⁵ cells/ml to give an HIV-infected cell suspension.
A mixture (1.0 ml) of the three constituents mentioned below was added to each well of a 24-well plastic culture plate and the test substance final concentration was adjusted to 10 mcg/ml, 5 mcg/ml, 2.5 mcg/ml or 1 mcg/ml. The "no addition" wells (0 mcg/ml) served as controls.
After 4 days of incubation following viral infection, the cells in each well on the 24-well culture plate were suspended uniformly by pipetting and a 0.5-ml portion of the suspension was separated. A 2.0-ml portion of test substance-free fresh medium was added to the remaining 0.5-ml portion of the cell suspension, followed by incubation.
Seven days after viral infection, pipetting was performed to give a uniform cell suspension in each well and a 0.5-ml portion of the suspension was separated.
Incubation was continued and, 10 days after viral infection, a uniform cell suspension was produced in the same manner in each well and a 1.5-ml portion thereof was separated. A fresh 2.0-ml portion of the medium free of (or containing) the test substance was added to the well, followed by further incubation.
Fifteen days after viral infection, the cells in each well were suspended uniformly in the same manner in the medium and a 2.0-ml portion of the suspension was separated. A fresh 2.0-ml portion of the medium free of (or containing) the test substance was added to the remaining 0.5 ml of the cell suspension and incubation was continued.
Medium exchange was performed in the same manner 20 days and 25 days after viral infection.
The cell suspensions collected 4 days, 7 days, 10 days, 20 days and 30 days after viral infection were tested for viable cell count and viable cell percentage by trypan blue staining. At the same time, viral antigen-positive cell percentage determination was carried out by immunofluorescence using an anti-HIV antiserum isolated from a healthy carrier of HIV.
The numerical values given each is the mean for the respective two wells on the culture plate. The viable cell count is the total cell count minus the count of dead cells stained with trypan blue. The viable cell percentage is the percentage of viable cells among all the cells including dead cells. The viral antigen-positive cell percentage is the percentage of cells indicating antigen expression as found among all the cells including dead cells.

[2] = in vivo; details: mouse, po
[3] = continuous addition, after 4 days
[4] = continuous addition, after 7 days
[5] = continuous addition, after 10 days
[6] = continuous addition, after 20 days
[7] = continuous addition, after 30 days

CC1COc2c(N3CCN(C)CC3)c(F)cc3c(=O)c(C(=O)O)cn1c23 (racemic) [OFLX, (±)-9-fluoro-3-methyl-10-(4-methyl-1-piperazinyl)-7-oxo-2,3-dihydro-7H-pyrido[1,2,3-de][1,4]benzoxazine-6-carboxylic acid]
Viable cell count ([1]; 4-day addition, after 7 days): 63 × 10⁴ cells/ml | Viral antigen-positive cell percentage ([1]; 4-day addition, after 7 days): 63% | Viable cell count ([1]; 4-day addition, after 10 days): 280 × 10⁴ cells/ml | Viral antigen-positive cell percentage ([1]; 4-day addition, after 10 days): 40% | Viable cell count ([1]; 4-day addition, after 20 days): 310 × 10⁴ cells/ml | Viral antigen-positive cell percentage ([1]; 4-day addition, after 20 days): 14% | Viable cell count ([1]; 4-day addition, after 30 days): 320 × 10⁴ cells/ml | Viral antigen-positive cell percentage ([1]; 4-day addition, after 30 days): 3% | Viable cell count [1, 3]: 280 × 10⁴ cells/ml | Viral antigen-positive cell percentage [1, 3]: 78% | Viable cell count [1, 4]: 55 × 10⁴ cells/ml | Viral antigen-positive cell percentage [1, 4]: 72% | Viable cell count [1, 5]: 130 × 10⁴ cells/ml | Viral antigen-positive cell percentage [1, 5]: 43% | Viable cell count [1, 6]: 290 × 10⁴ cells/ml | Viral antigen-positive cell percentage [1, 6]: 9% | Viable cell count [1, 7]: 390 × 10⁴ cells/ml | Viral antigen-positive cell percentage [1, 7]: 6% | viability at 1 µg/mL ([1]; 96 h, read-out: Viable cell percentage, 1 mcg/ml, 4-day addition, after 4 days): 96% | viability at 1 µg/mL ([1]; 96 h, read-out: Viable cell percentage, 1 mcg/ml, continuous addition, after 4 days): 94% | viability at 2.5 µg/mL ([1]; 96 h, read-out: Viable cell percentage, 2.5 mcg/ml, 4-day addition, after 4 days): 96% | viability at 2.5 µg/mL ([1]; 96 h, read-out: Viable cell percentage, 2.5 mcg/ml, continuous addition, after 4 days): 94% | viability at 5 µg/mL ([1]; 96 h, read-out: Viable cell percentage, 5 mcg/ml, 4-day addition, after 4 days): 93% | viability at 5 µg/mL ([1]; 96 h, read-out: Viable cell percentage, 5 mcg/ml, continuous addition, after 4 days): 98% | viability at 10 µg/mL ([1]; 96 h, read-out: Viable cell percentage, 10 mcg/ml, 4-day addition, after 4 days): 94% | viability at 10 µg/mL ([1]; 96 h, read-out: Viable cell percentage, 10 mcg/ml, continuous addition, after 4 days): 95% | viability at 1 µg/mL ([1]; 168 h, read-out: Viable cell percentage, 1 mcg/ml, continuous addition, after 7 days): 55% | viability at 2.5 µg/mL ([1]; 168 h, read-out: Viable cell percentage, 2.5 mcg/ml, continuous addition, after 7 days): 64% | viability at 5 µg/mL ([1]; 168 h, read-out: Viable cell percentage, 5 mcg/ml, continuous addition, after 7 days): 64% | viability at 10 µg/mL ([1]; 168 h, read-out: Viable cell percentage, 10 mcg/ml, continuous addition, after 7 days): 66% | viability at 1 µg/mL ([1]; 240 h, read-out: Viable cell percentage, 1 mcg/ml, continuous addition, after 10 days): 42% | viability at 2.5 µg/mL ([1]; 240 h, read-out: Viable cell percentage, 2.5 mcg/ml, continuous addition, after 10 days): 81% | viability at 5 µg/mL ([1]; 240 h, read-out: Viable cell percentage, 5 mcg/ml, continuous addition, after 10 days): 87% | viability at 10 µg/mL ([1]; 240 h, read-out: Viable cell percentage, 10 mcg/ml, continuous addition, after 10 days): 87% | viability at 1 µg/mL ([1]; 480 h, read-out: Viable cell percentage, 1 mcg/ml, continuous addition, after 20 days): 75% | viability at 2.5 µg/mL ([1]; 480 h, read-out: Viable cell percentage, 2.5 mcg/ml, continuous addition, after 20 days): 94% | viability at 5 µg/mL ([1]; 480 h, read-out: Viable cell percentage, 5 mcg/ml, continuous addition, after 20 days): 95% | viability at 10 µg/mL ([1]; 480 h, read-out: Viable cell percentage, 10 mcg/ml, continuous addition, after 20 days): 92% | viability at 1 µg/mL ([1]; read-out: Viable cell percentage, 1 mcg/ml, 4-day addition, after 7 days): 53% | viability at 1 µg/mL ([1]; read-out: Viable cell percentage, 1 mcg/ml, 4-day addition, after 10 days): 21% | viability at 1 µg/mL ([1]; read-out: Viable cell percentage, 1 mcg/ml, 4-day addition, after 20 days): 87% | viability at 1 µg/mL ([1]; read-out: Viable cell percentage, 1 mcg/ml, 4-day addition, after 30 days): 37% | viability at 1 µg/mL ([1]; read-out: Viable cell percentage, 1 mcg/ml, continuous addition, after 30 days): 33% | viability at 2.5 µg/mL ([1]; read-out: Viable cell percentage, 2.5 mcg/ml, 4-day addition, after 7 days): 67% | viability at 2.5 µg/mL ([1]; read-out: Viable cell percentage, 2.5 mcg/ml, 4-day addition, after 10 days): 67% | viability at 2.5 µg/mL ([1]; read-out: Viable cell percentage, 2.5 mcg/ml, 4-day addition, after 20 days): 95% | viability at 2.5 µg/mL ([1]; read-out: Viable cell percentage, 2.5 mcg/ml, 4-day addition, after 30 days): 97% | viability at 2.5 µg/mL ([1]; read-out: Viable cell percentage, 2.5 mcg/ml, continuous addition, after 30 days): 97% | viability at 5 µg/mL ([1]; read-out: Viable cell percentage, 5 mcg/ml, 4-day addition, after 7 days): 59% | viability at 5 µg/mL ([1]; read-out: Viable cell percentage, 5 mcg/ml, 4-day addition, after 10 days): 77% | viability at 5 µg/mL ([1]; read-out: Viable cell percentage, 5 mcg/ml, 4-day addition, after 20 days): 86% | viability at 5 µg/mL ([1]; read-out: Viable cell percentage, 5 mcg/ml, 4-day addition, after 30 days): 97% | viability at 5 µg/mL ([1]; read-out: Viable cell percentage, 5 mcg/ml, continuous addition, after 30 days): 94% | viability at 10 µg/mL ([1]; read-out: Viable cell percentage, 10 mcg/ml, 4-day addition, after 7 days): 73% | viability at 10 µg/mL ([1]; read-out: Viable cell percentage, 10 mcg/ml, 4-day addition, after 10 days): 85% | viability at 10 µg/mL ([1]; read-out: Viable cell percentage, 10 mcg/ml, 4-day addition, after 20 days): 92% | viability at 10 µg/mL ([1]; read-out: Viable cell percentage, 10 mcg/ml, 4-day addition, after 30 days): 95% | viability at 10 µg/mL ([1]; read-out: Viable cell percentage, 10 mcg/ml, continuous addition, after 30 days): 95% | LD50 [2]: 5450 mg/kg
